In ChEMBL document CHEMBL1151084, “Synthesis and biological properties of quaternized N-methylation analogs of D-Arg-2-dermorphin tetrapeptide” (Bioorg Med Chem Lett, 1994) one finds Ki, IC50 and ED50 data, which are given here for eight molecules.

Assay [1] addresses Delta-type opioid receptor (Rattus norvegicus, UniProt P33533). The assay can be described thus: Binding affinity against delta-opioid receptor by using [3H]DADLE as radioligand in rat brain. Type of assay: tissue-based.
Another assay is filed under the species Cavia porcellus. The assay can be described thus: In vitro bioactivity on electrically induced smooth muscle contraction of guinea pig ileum by GPI assay. It counts as functional.
For assay [2], the system named is Mus musculus. In words: In vivo antinociceptive effect in mice by PBQ writhing test upon subcutaneous administration; Range is (0.88-1.56). Type of assay: functional. The settings on record: sc. For orientation: Writhing tests count abdominal constrictions after an irritant is injected.
Another assay has as its target Mu-type opioid receptor (Rattus norvegicus, UniProt P33535). In words: Binding affinity against mu-opioid receptor by using [3H]DAGO as radioligand in rat brain. Type of assay: tissue-based.
Assay [3] concerns Mus musculus. The assay can be described thus: In vivo antinociceptive effect in mice by PBQ writhing test upon subcutaneous administration; Range is (1.64-3.24). Type of assay: functional. To be noted: sc.
Assay [4] concerns Mus musculus. The assay can be described thus: In vivo antinociceptive effect in mice by PBQ writhing test upon subcutaneous administration: Range is (0.39-0.59). It counts as functional. To be noted: sc.
The test system of assay [5] is Mus musculus. In words: In vivo antinociceptive effect in mice by PBQ writhing test upon subcutaneous administration; Range is (0.52-0.741). Type of assay: functional. The settings on record: sc.

Where a SMILES comes first, the peptide text is derived from it.

Chain of Mu-type opioid receptor (P33535 whole entry): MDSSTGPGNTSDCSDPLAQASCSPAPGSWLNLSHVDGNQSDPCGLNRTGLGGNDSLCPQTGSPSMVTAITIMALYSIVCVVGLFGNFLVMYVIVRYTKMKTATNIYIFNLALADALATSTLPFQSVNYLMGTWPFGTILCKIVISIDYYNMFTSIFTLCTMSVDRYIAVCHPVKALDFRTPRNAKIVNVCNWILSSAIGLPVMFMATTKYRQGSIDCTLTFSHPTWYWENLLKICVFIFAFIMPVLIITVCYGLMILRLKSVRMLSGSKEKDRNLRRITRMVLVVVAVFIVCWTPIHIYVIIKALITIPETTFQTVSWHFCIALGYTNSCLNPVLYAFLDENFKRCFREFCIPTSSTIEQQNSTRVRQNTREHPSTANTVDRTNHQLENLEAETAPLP
Chain of Delta-type opioid receptor (P33533 whole entry): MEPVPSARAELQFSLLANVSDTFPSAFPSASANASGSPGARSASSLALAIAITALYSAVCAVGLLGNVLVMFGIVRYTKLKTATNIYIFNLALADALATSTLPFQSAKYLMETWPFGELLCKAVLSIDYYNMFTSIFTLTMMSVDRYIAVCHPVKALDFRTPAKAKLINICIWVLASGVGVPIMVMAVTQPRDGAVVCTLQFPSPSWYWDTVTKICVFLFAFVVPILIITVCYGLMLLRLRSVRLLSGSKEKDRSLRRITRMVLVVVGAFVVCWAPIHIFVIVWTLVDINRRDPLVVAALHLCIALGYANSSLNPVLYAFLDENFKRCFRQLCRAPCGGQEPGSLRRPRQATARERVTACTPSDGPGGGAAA

As to `C[N+](C)(C)CCCC[C@H](NC(=O)[C@H](Cc1ccccc1)NC(=O)[C@@H](CCCNC(=N)N)NC(=O)[C@@H](N)Cc1ccc(O)cc1)C(N)=O`, the results for the inhibition constant Ki (in assay [1]; on Mu-type opioid receptor) were 3.55 µM and 1.12 nM, respectively. The half-inhibitory concentration (IC50) (commonly the concentration at which inhibition is half-maximal) in the assay listed under Cavia porcellus was 91.9 nM. The median effective dose (ED50) (in general, the dose that gives a 50% effect, or the effect in half of the subjects) in the assay with Mus musculus [2] was determined as 1.18 mg/kg.
`C[N+](C)(C)CC[C@H](NC(=O)[C@H](Cc1ccccc1)NC(=O)[C@H](CCCNC(=N)N)NC(=O)[C@H](Cc1ccc(O)cc1)[N+](C)(C)C)C(N)=O`: the Ki (commonly a dissociation constant, usually derived from enzyme kinetics or from competition with a known ligand) was more than 100 µM in assay [1] and 1300 nM at Mu-type opioid receptor. In the assay listed under Cavia porcellus, this molecule came in with an IC50 of 3120 nM.
On to `C[N+](C)(C)CC[C@H](NC(=O)[C@H](Cc1ccccc1)NC(=O)[C@H](CCCN=C(N)N)NC(=O)[C@@H](N)Cc1ccc(O)cc1)C(N)=O`, for which the inhibition constant (Ki) was found to be 5.86 µM in assay [1] and 7.52 nM on Mu-type opioid receptor. The same molecule yielded an IC50 in the assay listed under Cavia porcellus of 125 nM.
For `C[N+](C)(C)CCC[C@H](NC(=O)[C@H](Cc1ccccc1)NC(=O)[C@@H](CCCN=C(N)N)NC(=O)[C@@H](N)Cc1ccc(O)cc1)C(N)=O`, the inhibition constant Ki in assay [1] was found to be 0.45 µM; at Mu-type opioid receptor it was 2.35 nM. For the same molecule, in the assay listed under Cavia porcellus, the IC50 was found to be 130 nM. In addition, it took a dose of 2.3 mg/kg to reach the 50% effect level with Mus musculus [3] (ED50).
Take `C[N+](C)(C)[C@@H](Cc1ccc(O)cc1)C(=O)N[C@H](CCCN=C(N)N)C(=O)N[C@@H](Cc1ccccc1)C(=O)N[C@@H](CCCN)C(N)=O`: the Ki in assay [1] is more than 100 µM; at Mu-type opioid receptor it was 1920 nM. Also, in the assay listed under Cavia porcellus, the IC50 is more than 100000 nM.
On to `NCCCC[C@H](NC(=O)[C@H](Cc1ccccc1)NC(=O)[C@@H](CCCN=C(N)N)NC(=O)[C@@H](N)Cc1ccc(O)cc1)C(N)=O`, for which the figures for the Ki (in assay [1]; at Mu-type opioid receptor) were 2.36 µM and 0.38 nM, respectively. This molecule also yielded an IC50 in the assay listed under Cavia porcellus of 50.6 nM. This molecule also showed an ED50 in the assay with Mus musculus [4] of 0.47 mg/kg.
As for `C[N+](C)(C)[C@@H](Cc1ccc(O)cc1)C(=O)N[C@H](CCCN=C(N)N)C(=O)N[C@@H](Cc1ccccc1)C(=O)N[C@@H](CCCCN)C(N)=O`, the values for the inhibition constant Ki (in assay [1]; at Mu-type opioid receptor) were more than 100 µM and 207 nM, respectively. In addition, the IC50 in the assay listed under Cavia porcellus amounted to 2470 nM.
Turning to `NC(=O)[C@H](CCNC(=O)[C@H](Cc1ccccc1)NC(=O)[C@H](CCCN=C(N)N)NC(=O)[C@@H](N)Cc1ccc(O)cc1)NC(=O)[C@H](Cc1ccccc1)NC(=O)[C@H](CCCN=C(N)N)NC(=O)[C@@H](N)Cc1ccc(O)cc1` (HELM PEPTIDE1{Y.R.F.[Dab].[am]}|PEPTIDE2{Y.R.F}$PEPTIDE1,PEPTIDE2,4:R3-3:R2$$$V2.0), the Ki is 0.497 µM in assay [1] and 0.51 nM on Mu-type opioid receptor. In the assay listed under Cavia porcellus, half-maximal inhibition (IC50) required 14.2 nM. Besides, the ED50 in the assay on Mus musculus [5] was 0.61 mg/kg.
